Patent US7355063B2, “Shogaol compound and tyrosinase activity inhibitor comprising the compound” (Toagosei Co., Ltd., priority 2003, dated 2008)

Key:
[1] = Test of suppressing lipid peroxide formation using linoleic acid
Method: Using the compound 7 obtained in Example 2, the compound 38 obtained in Example 22, the compound 40 obtained in Example 24, the compound 42 obtained in Example 26, the compound 46 obtained in Example 30, and as a comparative control, dl-α-tocopherol (manufactured by Tokyo Kasei Kogyo Co., Ltd.), a test of suppressing lipid peroxide formation was carried out using linoleic acid.
(1) After ethanol (2.0 g) was added to linoleic acid (0.2 g, manufactured by Tokyo Kasei Kogyo Co., Ltd.), the compound 7 (0.01 g), and a surfactant Nissan OT-221 (0.4 g, manufactured by NOF Corporation) placed in a 50-ml screw vial and they was dissolved one another, distilled water (17.39 g) was added to the resulting solution and the whole was stirred. Then, the whole was tightly sealed and allowed to stand in a constant-temperature chamber at 40° C. Such sample was prepared in a duplex manner.
The same operation was carried out on the compounds 38, 40, 42, 46, dl-α-tocopherol, and a sample with addition of no test compound (blank).
(2) The amount of remaining linoleic acid after one week, 2 weeks, 3 weeks, and 4 weeks from the start of the test was quantitatively determined by HPLC.
The HPLC analytical conditions were as follows: Wavelength for detection: 210 nm; Mobile phase: a mixed solution of a Mc Ilvaine buffer adjusted to pH 2.6 and methanol (10:90); Flow rate: 1 ml/min; Column: ODS-80Ts (4.6 φmm×150 mm); and Column temperature: 40° C.
(3) Quantitative determination by HPLC was carried out on each sample one time. The ratio of remaining linoleic acid was calculated on the basis of the mean value of values obtained in two-times measurement.

[2] = Test of scavenging DPPH radical (Test Example 8, 517 nm); settings: final concentration of 10 μg/mL; 20 minutes, room temperature
Method: Using the compound 7 obtained in Example 2 as well as dl-α-tocopherol (manufactured by Tokyo Kasei Kogyo Co., Ltd.) and butylhydroxytoluene (BHT) as comparative controls, a test of scavenging DDPH (1,1-diphenyl-2-picrylhydrazyl) radical, a stable radical, was carried out.
1 ml of 200 μM DPPH ethanol solution was added to 800 μl of 100 mM Tris-HCl buffer (pH 7.4) and 200 μl of an ethanol solution of the compound 7 (a final concentration of 10 μg/mL), followed by sufficient stirring. After the resulting mixture was allowed to stand in a dark place at room temperature for 20 minutes, the absorbance at 517 nm was measured (absorbance of the test solution)
The compound 13 of the invention as well as dl-α-tocopherol and butylhydroxytoluene as a known radical scavenger were similarly tested.
As a control, 800 μl of 100 mM Tris-HCl buffer (pH 7.4), 200 μl of ethanol, and 1 ml of 200 μM DPPH ethanol solution were used in the same manner as described above and the absorbance was measured (absorbance of the control solution).
With the individual compounds, the same measurement was repeated three times, and the mean value was inserted in the following formula to calculate a DPPH radical-scavenging ratio (%). DPPH radical-scavenging ratio (%)=[1−(absorbance of sample solution/absorbance of control solution)]×100

[3] = Test of scavenging DPPH radical (Test Example 9, microplate reader, 540 nm); settings: final concentration of 25 μg/mL; 20 minutes, room temperature
From the text: Using the compound 36 obtained in Example 20, the compound 37 obtained in Example 21, the compound 38 obtained in Example 22, the compound 39 obtained in Example 23, the compound 40 obtained in Example 24, the compound 42 obtained in Example 26, the compound 45 obtained in Example 29, the compound 46 obtained in Example 30, the compound 48 obtained in Example 32 and, as a comparative control, dl-α-tocopherol (manufactured by Tokyo Kasei Kogyo Co., Ltd.), a test of scavenging DDPH (1,1-diphenyl-2-picrylhydrazyl) radical, a stable radical, was carried out.
100 μl of 800 μM DPPH ethanol solution was added to 80 μl of 100 mM Tris-HCl buffer (pH 7.4) and 20 μl of an ethanol solution of the compound 36 (final concentration of 25 μg/mL), followed by sufficient stirring. After the resulting mixture was allowed to stand in a dark place at room temperature for 20 minutes, the absorbance at 540 nm was measured on a microplate reader (absorbance of the test solution).
The compounds 37, 38, 39, 40, 42, 45, 46, and 48 of the invention as well as dl-α-tocopherol as a known radical scavenger were similarly tested.
As a control, using 80 μl of 100 mM Tris-HCl buffer (pH 7.4), 20 μl of ethanol, and 100 μl of 800 μM DPPH ethanol solution, the same operation was carried out as described above and the absorbance was measured (absorbance of the control solution).
With the individual compounds, the same measurement was repeated four times, and the mean value was inserted in the following formula to calculate a DPPH radical-scavenging ratio. DPPH radical-scavenging ratio (%)=[1−(absorbance of sample solution/absorbance of control solution)]×100

[4] = tested on: mushroom tyrosinase; assay: Tyrosinase activity inhibition test using L-dopa as substrate (Test Examples 3 to 6, microplate reader, 490 nm); type: biochemical; settings: Table 3
Method: Using the compound 37 obtained in Example 21, the compound 38 obtained in Example 22, the compound 39 obtained in Example 23, and arbutin (manufactured by Tokyo Kasei Kogyo Co., Ltd.) as a comparative control, a tyrosinase activity inhibition test was carried out using L-dopa as a substrate.
The specific test procedures are as follows. • (1) 72 μl of a phosphate buffer prepared by dissolving 1.000 g of sodium dihydrogen phosphate and 1.186 g of disodium hydrogen phosphate in 500 ml of distilled water, 80 μl of a substrate solution prepared by dissolving 32.7 mg of L-DOPA in 200 ml of distilled water, and 8 μl of a test solution prepared by dissolving the test compound in dimethyl sulfoxide were mixed together. • (2) 80 μl of an enzyme solution prepared by dissolving 3.0 mg (2400 units; manufactured by Sigma Corporation) of mushroom tyrosinase in 7.0 ml of distilled water and diluting the solution with the above phosphate buffer so as to make it five times in amount was added to the solution prepared in (1), and the whole was stirred for 15 seconds. The resulting solution was maintained at 25° C., and the absorbance at 490 nm was measured by a microplate reader one minute and 45 seconds later and 2 minutes and 45 seconds later. • (3) The test operations in the above (1) and (2) were conducted four times for the individual test compounds and blank test (only dimethyl sulfoxide), and the resulting numeric value was inserted in the following calculation formula and a mean value thereof was regarded as a tyrosinase activity inhibition ratio (%). Tyrosinase activity inhibition ratio (%)=[(T^1−T^2)/T^1]×100 • T^1=difference in absorbance of solution with addition of no test compound between 2 minutes and 45 seconds later and one minute and 45 seconds later • T^2=difference in absorbance of solution with addition of test compound was added between 2 minutes and 45 seconds later and one minute and 45 seconds later
Using the compound 42 obtained in Example 26, the compound 45 obtained in Example 29, the compound 46 obtained in Example 30, and arbutin (manufactured by Tokyo Kasei Kogyo Co., Ltd.) as a comparative control, a tyrosinase activity inhibition test was carried out using L-dopa as a substrate. The test procedure was in accordance with Test Example 3.
Using the compound 34 obtained in Example 18, the compound 47 obtained in Example 31, and arbutin (manufactured by Tokyo Kasei Kogyo Co., Ltd.) as a comparative control, a tyrosinase activity inhibition test was carried out using L-dopa as a substrate. The test procedure was in accordance with Test Example 3.
Using the compound 48 obtained in Example 32 and arbutin (manufactured by Tokyo Kasei Kogyo Co., Ltd.) as a comparative control, a tyrosinase activity inhibition test was carried out using L-dopa as a substrate. The test procedure was in accordance with Test Example 3.

Question: With `Cc1c(C)c2c(c(C)c1O)CCC(C)(CCCC(C)CCCC(C)CCCC(C)C)O2` (racemic) [Tocopherol, dl-α-tocopherol] as the compound, how does the “Ratio of remaining linoleic acid (%)” value ([1]; After 1 week at 40° C.) read?
Answer: 88.7%

Question: And the “Ratio of remaining linoleic acid (%)” value ([1]; After 2 weeks at 40° C.)?
Answer: 81.3%

Question: And the “Ratio of remaining linoleic acid (%)” value ([1]; After 3 weeks at 40° C.)?
Answer: 69.7%

Question: What about the “Ratio of remaining linoleic acid (%)” value ([1]; After 4 weeks at 40° C.) of the same compound?
Answer: 50.0%

Question: And the “DPPH radical-scavenging ratio (%)” value [2]?
Answer: 28.4%

Question: What about the “DPPH radical-scavenging ratio (%)” value [3] of the same compound?
Answer: 14.9%

Question: With `COc1cc(CCC(O)CCCCCCCCC(=O)O)ccc1O` (stereo not drawn) [Compound 39] as the compound, how does the “Tyrosinase activity inhibition ratio (%)” value ([4]; 0.5 mg/mL) read?
Answer: 51.3%

Question: What about the “Tyrosinase activity inhibition ratio (%)” value ([4]; 1 mg/mL) of the same compound?
Answer: 75.2%

Question: What about the “DPPH radical-scavenging ratio (%)” value [3] of the same compound?
Answer: 33.8%

Question: For `COc1cc(CCC(O)/C=C/CCCCCCC(=O)O)ccc1O` (stereo not drawn) [Compound 37], which “Tyrosinase activity inhibition ratio (%)” value ([4]; 0.5 mg/mL) is on record?
Answer: 48.6%

Question: What about the “Tyrosinase activity inhibition ratio (%)” value ([4]; 1 mg/mL) of the same compound?
Answer: 67.7%

Question: What about the “DPPH radical-scavenging ratio (%)” value [3] of the same compound?
Answer: 37.6%
